According to US10987359B2, “Oxadiazepinone derivatives and methods of treating hepatitis B infections” (priority 2016, dated 2021):

system: HBV; assay: HBV replication inhibition assay (BDNA assay) in HepG2.2.15 cells; type: cell-based; conditions: HBV replication assay (BDNA assay), HepG2.2.15 cells; read-out: DNA EC50
Procedure, shortened: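 HepG2.2.15 cells with stably integrated HBV were treated with serially diluted compounds at 0.5% DMSO for 6 days, with medium and compound refreshed at day 3. Encapsidated HBV DNA from DNase-treated supernatant was quantified by branched DNA assay. EC50 came from % inhibition versus DMSO, fitted non-linearly.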

Structure (SMILES)	EC50 [nM]
C[C@@H]1Cc2nn3c(c2CN1C(=O)Nc1ccc(F)c(C(F)(F)F)c1)C(=O)N(C)OC(CO)C3 (stereo in doubt) [Compound 082_E2, (4R*,9R)—N-(4-fluoro-3-(trifluoromethyl)phenyl)-4-(hydroxymethyl)-2,9-dimethyl-1-oxo-1,4,5,8,9,11-hexahydropyrido[4′,3′:3,4]pyrazolo[5,1-d][1,2,5]oxadiazepine-10(2H)-carboxamide]	1 to 100
C[C@@H]1Cc2nn3c(c2CN1C(=O)Nc1ccc(F)c(C#N)c1)C(=O)N(C)OC(CO)C3 (stereo in doubt) [Compound 084_E2, (4R*,9R)—N-(3-cyano-4-fluorophenyl)-4-(hydroxymethyl)-2,9-dimethyl-1-oxo-1,4,5,8,9,11-hexahydropyrido[4′,3′:3,4]pyrazolo [5,1-d][1,2,5]oxadiazepine-10(2H)-carboxamide]	1 to 100
C[C@@H]1Cc2nn3c(c2CN1C(=O)Nc1ccc(F)c(C(F)(F)F)c1)C(=O)N(C)OC(CF)C3 (stereo in doubt) [Compound 085_E2, (4R*,9R)—N-(4-fluoro-3-(trifluoromethyl)phenyl)-4-(fluoromethyl)-2,9-dimethyl-1-oxo-1,4,5,8,9,11-hexahydropyrido[4′,3′:3,4]pyrazolo[5,1-d][1,2,5]oxadiazepine-10(2H)-carboxamide]	1 to 100
Cc1cc(NC(=O)N2Cc3c(nn4c3C(=O)N(C)OC(CF)C4)C[C@H]2C)ccc1F (stereo in doubt) [Compound 086_E2, (4R*,9R)—N-(4-fluoro-3-methylphenyl)-4-(fluoromethyl)-2,9-dimethyl-1-oxo-1,4,5,8,9,11-hexahydropyrido[4′,3′:3,4]pyrazolo[5,1-d][1,2,5]oxadiazepine-10(2H)-carboxamide]	1 to 100
C[C@@H]1Cc2nn3c(c2CN1C(=O)Nc1ccc(F)c(C#N)c1)C(=O)N(C)OC(CF)C3 (stereo in doubt) [Compound 087_E2, (4R*,9R)—N-(3-cyano-4-fluorophenyl)-4-(fluoromethyl)-2,9-dimethyl-1-oxo-1,4,5,8,9,11-hexahydropyrido[4′,3′:3,4]pyrazolo[5,1-d][1,2,5]oxadiazepine-10(2H)-carboxamide]	1 to 100

same assay, conditions: Hepatitis B virus, HepG2.2.15, HBV replication assay (BDNA assay), HepG2.2.15 cells; read-out: DNA EC50

Structure (SMILES)	EC50 [nM]
CN1O[C@@H](C[S@@+](C)[O-])Cn2nc3c(c2C1=O)CN(C(=O)Nc1ccc(F)c(Cl)c1)CC3 (stereo in doubt) [Compound 049_E3, (R*)—N-(3-chloro-4-fluorophenyl)-2-methyl-4-(((R*)-methylsulfinyl)methyl)-1-oxo-1,4,5,8,9,11-hexahydropyrido[4′,3′:3,4]pyrazolo[5,1-d][1,2,5]oxadiazepine-10(2H)-carboxamide]	1 to 100
CN1O[C@@H](C[S@+](C)[O-])Cn2nc3c(c2C1=O)CN(C(=O)Nc1ccc(F)c(Cl)c1)CC3 (stereo in doubt) [Compound 049_E4, (R*)—N-(3-chloro-4-fluorophenyl)-2-methyl-4-(((S*)-methylsulfinyl)methyl)-1-oxo-1,4,5,8,9,11-hexahydropyrido[4′,3′:3,4]pyrazolo[5,1-d][1,2,5]oxadiazepine-10(2H)-carboxamide]	100 to 500
C[C@H]1Cc2nn3c(c2CN1C(=O)Nc1ccc(F)c(Cl)c1)C(=O)N(C)O[C@H](CO)C3 (stereo in doubt) [Compound 069_E1, (4S*,9S*)—N-(3-chloro-4-fluorophenyl)-4-(hydroxymethyl)-2,9-dimethyl-1-oxo-1,4,5,8,9,11-hexahydropyrido[4′,3′:3,4]pyrazolo[5,1-d][1,2,5]oxadiazepine-10(2H)-carboxamide]	1 to 100
C[C@H]1Cc2nn3c(c2CN1C(=O)Nc1ccc(F)c(Cl)c1)C(=O)N(C)O[C@@H](CO)C3 (stereo in doubt) [Compound 069_E2, (4R*,9S*)—N-(3-chloro-4-fluorophenyl)-4-(hydroxymethyl)-2,9-dimethyl-1-oxo-1,4,5,8,9,11-hexahydropyrido[4′,3′:3,4]pyrazolo[5,1-d][1,2,5]oxadiazepine-10(2H)-carboxamide]	1 to 100
C[C@@H]1Cc2nn3c(c2CN1C(=O)Nc1ccc(F)c(Cl)c1)C(=O)N(C)O[C@@H](CO)C3 (stereo in doubt) [Compound 069_E3, (4R*,9R*)—N-(3-chloro-4-fluorophenyl)-4-(hydroxymethyl)-2,9-dimethyl-1-oxo-1,4,5,8,9,11-hexahydropyrido[4′,3′:3,4]pyrazolo[5,1-d][1,2,5]oxadiazepine-10(2H)-carboxamide]	100 to 500
C[C@@H]1Cc2nn3c(c2CN1C(=O)Nc1ccc(F)c(Cl)c1)C(=O)N(C)O[C@H](CO)C3 (stereo in doubt) [Compound 069_E4, (4S*,9R*)—N-(3-chloro-4-fluorophenyl)-4-(hydroxymethyl)-2,9-dimethyl-1-oxo-1,4,5,8,9,11-hexahydropyrido[4′,3′:3,4]pyrazolo[5,1-d][1,2,5]oxadiazepine-10(2H)-carboxamide]	1 to 100
C[C@@H]1Cc2nn3c(c2CN1C(=O)Nc1ccc(F)c(C(F)(F)F)c1)C(=O)N(C)OC(CO)C3 (stereo in doubt) [Compound 082_E1, (4S*,9R)—N-(4-fluoro-3-(trifluoromethyl)phenyl)-4-(hydroxymethyl)-2,9-dimethyl-1-oxo-1,4,5,8,9,11-hexahydropyrido[4′,3′:3,4]pyrazolo[5,1-d][1,2,5]oxadiazepine-10(2H)-carboxamide]	1 to 100
C[C@@H]1Cc2nn3c(c2CN1C(=O)Nc1ccc(F)c(C#N)c1)C(=O)N(C)OC(CO)C3 (stereo in doubt) [Compound 084_E1, (4S*,9R)—N-(3-cyano-4-fluorophenyl)-4-(hydroxymethyl)-2,9-dimethyl-1-oxo-1,4,5,8,9,11-hexahydropyrido[4′,3′:3,4]pyrazolo [5,1-d][1,2,5]oxadiazepine-10(2H)-carboxamide]	1 to 100
C[C@@H]1Cc2nn3c(c2CN1C(=O)Nc1ccc(F)c(C(F)(F)F)c1)C(=O)N(C)OC(CF)C3 (stereo in doubt) [Compound 085_E1, (4S*,9R)—N-(4-fluoro-3-(trifluoromethyl)phenyl)-4-(fluoromethyl)-2,9-dimethyl-1-oxo-1,4,5,8,9,11-hexahydropyrido[4′,3′:3,4]pyrazolo[5,1-d][1,2,5]oxadiazepine-10(2H)-carboxamide]	1 to 100
Cc1cc(NC(=O)N2Cc3c(nn4c3C(=O)N(C)OC(CF)C4)C[C@H]2C)ccc1F (stereo in doubt) [Compound 086_E1, (4S*,9R)—N-(4-fluoro-3-methylphenyl)-4-(fluoromethyl)-2,9-dimethyl-1-oxo-1,4,5,8,9,11-hexahydropyrido[4′,3′:3,4]pyrazolo[5,1-d][1,2,5]oxadiazepine-10(2H)-carboxamide]	1 to 100
C[C@@H]1Cc2nn3c(c2CN1C(=O)Nc1ccc(F)c(C#N)c1)C(=O)N(C)OC(CF)C3 (stereo in doubt) [Compound 087_E1, (4S*,9R)—N-(3-cyano-4-fluorophenyl)-4-(fluoromethyl)-2,9-dimethyl-1-oxo-1,4,5,8,9,11-hexahydropyrido[4′,3′:3,4]pyrazolo[5,1-d][1,2,5]oxadiazepine-10(2H)-carboxamide]	1 to 100
C[C@@H]1Cc2nn3c(c2CN1C(=O)Nc1cc(Br)c(F)cc1F)C(=O)N(C)OC(CO)C3 (stereo in doubt) [Compound 089_E1, (4S*,9R)—N-(5-bromo-2,4-difluorophenyl)-4-(hydroxymethyl)-2,9-dimethyl-1-oxo-1,4,5,8,9,11-hexahydropyrido[4′,3′:3,4]pyrazolo[5,1-d][1,2,5]oxadiazepine-10(2H)-carboxamide]	1 to 100
